Patent publication US6642209B1, “Use of adenosine compounds to alleviate or normalize pathologically hyperexcited sensory nerve function in a human patient” (priority 1990, dated 2003)

What was measured:
[1] = system: surgical patients; experiment: ATP anesthesia replacing enflurane or N2O in patients undergoing oral surgery
[2] = system: rabbits; experiment: Hypothermia induced under adenosine or ATP infusion; type: in vivo, rabbit
Protocol: The hypothermic and rewarming effects of an adenosine compound are tested in experimental animals prepared similarly as in the rabbit model described herein to test for anesthetic effects, except that the body temperature is allowed to fall. In animal studies (rabbit) where the room has a temperature of approximately 22° C., the body temperature will fall from a norm of about 39° C. to about 32° C. in about three hours. If the animal is cooled further with ice bags, a temperature of approximately 22° C. can be achieved in three hours without cardiovascular decompensation. Rewarming is done with the aid of a thermal blanket and heat lamp. The effective dosages of adenosine compound ranged from about 100 μg/kg/min to about 5000 μg/kg/min.
Referring to FIG. 7, the body temperature versus time plots are shown for eight different experiments. In Run 1, adenosine 500 μg/kg/min was administered intravenously to rabbits for six hours. The administration was then stopped and the body temperatures were allowed to recover.
In Run 2, ATP 500 μg/kg/min was administered intravenously for six hours. At that time, the body temperature was 31.5° C. The animal's body temperature was allowed to recover by applying external heating for four hours when (at the arrow) the external heating was removed and the temperature was allowed to fall. The body temperature again fell.
In Run 3, ATP was administered intravenously. The body temperature stabilized after ten hours at 32.5° C.
In Runs 4, 5, and 6, adenosine was administered to rabbits until the body temperature reached a constant value. In Run 4, after five hours, the body temperature stabilized at 33° C. In Run 6, after six hours, the temperature stabilized at 31.5° C.
In Run 7, five unmedicated New Zealand rabbits were anesthetized with halothane in O2 using a face mask. The ear vein was cannulated with a 22 gauge plastic catheter for drug infusion. 500 μg/kg/min to 5500 μ/kg/min adenosine was administered IV. Body temperature was monitored through a rectal thermometer. The body temperature started at approximately 38.5° C. After the application of ice bags, the temperature dropped approximately 5.5° C./hr until a minimum body temperature of approximately 22° C. was achieved.
The ice bags were removed and external heating applied. The body temperature of all rabbits returned to normal, and the rabbits were apparently normal.
In a comparison, in Run 8, six rabbits were anesthetized with isofluane and external cooling applied.

[3] = system: rabbits; experiment: Replacement of enflurane anesthesia by ATP infusion, electrical tail stimulation and tail clamp; conditions: for DBP / HR / PaCO2 / PaO2 / RR (Respiratory Rate) / SBP: N2O 60%, ENF 2.0-[…], ATP 362 ± 164 μg/kg/min, Mean ± SD, n = 6
[4] = system: surgical patients; experiment: ATP infusion to attenuate surgical stress response in patients
[5] = system: dogs; experiment: Oxygen transport and regional tissue oxygenation during graded induced hypotension; type: in vivo, dog; conditions: graded hypotension to MAP 30 mmHg
Protocol: Arterial and pulmonary artery (Swan-Ganz) catheters were placed via a femoral cut down. […] Another PO2 sensor probe was placed on the surface of the liver, kidney, subcutaneous, and muscle of the chest wall through a small skin incision. Referring to FIG. 6, the dogs were divided into three groups: (a) hemorrhagic (n=7), (b) isoflurane (n=8), and (c) ATP (n=8). […] The following were measured and/or calculated: […] The data were analyzed using ANOVA with the Bonferroni t-test and unpaired t-test where appropriate, accepting p<0.05 as significant.

[6] = system: experimental animals; experiment: Lethal to effective dose margin; type: in vivo
Protocol: In contrast to other conventional anesthetics, the adenosine compounds are useful over a wide dose range. For example, adenosine is active over a as range of between 1 to 5000 μg/kg/min. In contrast, conventional anesthetic agents, such as isoflurane, have narrow effective ranges. The fatal to effective anesthetic ratio of isoflurane is 3.02±0.13. Other reports indicate that isoflurane has about 1.88 times the safety range of halothane. […] Of course, the anesthesiologist will err on the side of administering too little and, thereby, runs the risk of underdosing the patient. This need for caution may result in an inadequately anesthetized (subanesthetized) patient during the surgical procedure.
One great advantage observed with adenosine compounds is the wide margin for error on effective therapeutic range. This advantage is exemplified by adenosine where the lethal dose is about 100 times the dose required for analgesia, and ATP where the lethal dose is greater than 150 times the amount required for analgesia.

[7] = Anesthesia score chart comparing anesthetic agents for the four components of anesthesia (Table 1); design: key: 0 no effect; 1 minimal; 2 mostly; 3 maximal; conditions: for Antinociception (analgesia, less pain perception) / Inhibition of Stress (autonomic responses: blood pressure, heart rate; endocrine and metabolic responses) / Muscle Relaxation / Sleep (unconsciousness, amnesia, sedation): Anesthesia Score 0 to 3; for TOTALS of Anesthesia Score: sum of the four components
[8] = GROUP A spontaneously breathing, ATP infusion time 60 min, n = 18, mean
[9] = GROUP A spontaneously breathing, ATP infusion time 120 min, n = 16, mean
[10] = GROUP A spontaneously breathing, ATP infusion time 180 min, n = 3, mean
[11] = GROUP A spontaneously breathing, ATP infusion time 240 min, n = 1
[12] = GROUP B mechanically breathing, ATP infusion time 60 min, n = 14, mean
[13] = GROUP B mechanically breathing, ATP infusion time 120 min, n = 10, mean
[14] = GROUP B mechanically breathing, ATP infusion time 180 min, n = 5, mean
[15] = GROUP B mechanically breathing, ATP infusion time 240 min, n = 4, mean

Compound: Nc1ncnc2c1ncn2[C@@H]1O[C@H](COP(=O)(O)OP(=O)(O)OP(=O)(O)O)[C@@H](O)[C@H]1O [ATP, adenosine triphosphate]
- ATP infusion dose titrated until ENF or N2O was completely replaced ([1]; 14 patients, Mean ± SD): 108 ± 21 µg/kg/min
- Urine output ([1]; 14 patients, Mean ± SD): 111 ± 16 mL/h
- ventilatory or blood gas deterioration ([1]; during ATP infusion in spontaneously breathing patients): No ventilatory or blood gas deterioration was seen
- body temperature ([2]; Run 2, 500 μg/kg/min intravenously for six hours): 31.5 °C
- body temperature at which it stabilized ([2]; Run 3, intravenously, after ten hours): 32.5 °C
- purposeful escape movements on electrical tail stimulation ([3]; FIG. 4): purposeful escape movements decreased
- analgesic effect after the infusion had stopped ([3]; IV ATP): selective analgesic effect persisted
- DBP [3]: 83 ± 16 mmHg
- HR [3]: 278 ± 26 bpm
- PaCO2 [3]: 22 ± 3 mmHg
- PaO2 [3]: 145 ± 24 mmHg
- RR (Respiratory Rate) [3]: 81 ± 14 bpm
- SBP [3]: 112 ± 20 mmHg
- BE [4, 8]: −3.3
- Hb [4, 8]: 12.6
- PCO2 [4, 8]: 44.1
- PO2 [4, 8]: 140.9
- pH (arterial blood gas) [4, 8]: 7.33
- BE [4, 9]: −3.2
- Hb [4, 9]: 12.8
- PCO2 [4, 9]: 41.9
- PO2 [4, 9]: 137.9
- pH (arterial blood gas) [4, 9]: 7.34
- BE [4, 10]: −3.0
- Hb [4, 10]: 11.9
- PCO2 [4, 10]: 39.9
- PO2 [4, 10]: 165.5
- pH (arterial blood gas) [4, 10]: 7.36
- BE [4, 11]: −4.1
- Hb [4, 11]: 10.7
- PCO2 [4, 11]: 31.0
- PO2 [4, 11]: 115.1
- pH (arterial blood gas) [4, 11]: 7.39
- BE [4, 12]: −4.2
- Hb [4, 12]: 11.7
- PCO2 [4, 12]: 40.2
- PO2 [4, 12]: 140.3
- pH (arterial blood gas) [4, 12]: 7.34
- BE [4, 13]: −4.8
- Hb [4, 13]: 11.2
- PCO2 [4, 13]: 40.1
- PO2 [4, 13]: 142.6
- pH (arterial blood gas) [4, 13]: 7.33
- BE [4, 14]: −5.2
- Hb [4, 14]: 11.8
- PCO2 [4, 14]: 41.6
- PO2 [4, 14]: 130.4
- pH (arterial blood gas) [4, 14]: 7.32
- BE [4, 15]: −5.4
- Hb [4, 15]: 11.7
- PCO2 [4, 15]: 45.4
- PO2 [4, 15]: 130.1
- pH (arterial blood gas) [4, 15]: 7.288
- Intra-operative urine output ([4]; Group A, spontaneous ventilation, n=20): 58.7 (±43.3) ml/hr
- Intra-operative urine output ([4]; Group B, mechanically ventilated, n=14): 71.8 (±44.6) ml/hr
- emergence from anesthesia ([4]; after discontinuation of N2O and ATP): all patients emerged from anesthesia smoothly
- cardiovascular and neurobehavioral responses to surgery ([4]; continuous infusion in combination with N2O): effectively inhibited
- ENF requirement ([4]; continuous infusion of ATP): markedly reduced
- hemodynamic and respiratory functions ([4]; during ATP infusion): well maintained
- O2 supply/demand ratio [5]: positive O2 supply/demand ratio in all stages of hypotension
- deaths on overdose ([6]; enormous overdoses): no experimental animals died
- lethal dose relative to the dose required for analgesia ([6]; in vivo): greater than 150 times

Compound: FC(F)OC(F)(F)C(F)Cl (stereo not shown) [ENF, enflurane, reference compound]
- Antinociception (analgesia, less pain perception) [7]: 1
- Inhibition of Stress (autonomic responses: blood pressure, heart rate; endocrine and metabolic responses) [7]: 1
- Muscle Relaxation [7]: 1
- Sleep (unconsciousness, amnesia, sedation) [7]: 3
- TOTALS of Anesthesia Score [7]: 6
- DBP [3]: 49 ± 18 mmHg
- HR [3]: 255 ± 33 bpm
- PaCO2 [3]: 25 ± 1 mmHg
- PaO2 [3]: 148 ± 16 mmHg
- RR (Respiratory Rate) [3]: 72 ± 19 bpm
- SBP [3]: 69 ± 22 mmHg
- ENF level that completely inhibits responses to tail clamp ([3]; under 60% N2O): 2-2.5%

Compound: [N-]=[N+]=O [Nitrous Oxide, nitrous oxide]
- Antinociception (analgesia, less pain perception) [7]: 1
- Inhibition of Stress (autonomic responses: blood pressure, heart rate; endocrine and metabolic responses) [7]: 1
- Muscle Relaxation [7]: 0
- Sleep (unconsciousness, amnesia, sedation) [7]: 1
- TOTALS of Anesthesia Score [7]: 3
